2 compounds from patent publication US20250228823A1, “PHARMACEUTICAL COMPOSITIONS COMPRISING (3-(1-(1H-IMIDAZOL-4-YL)ETHYL)-2-METHYLPHENYL)METHANOL” (Allergan, Inc., priority 2010, published 2025) can be followed below.

One test addresses T1, human alpha 2A receptor (Homo sapiens, UniProt P08913).
T1 sequence (P08913 1-465): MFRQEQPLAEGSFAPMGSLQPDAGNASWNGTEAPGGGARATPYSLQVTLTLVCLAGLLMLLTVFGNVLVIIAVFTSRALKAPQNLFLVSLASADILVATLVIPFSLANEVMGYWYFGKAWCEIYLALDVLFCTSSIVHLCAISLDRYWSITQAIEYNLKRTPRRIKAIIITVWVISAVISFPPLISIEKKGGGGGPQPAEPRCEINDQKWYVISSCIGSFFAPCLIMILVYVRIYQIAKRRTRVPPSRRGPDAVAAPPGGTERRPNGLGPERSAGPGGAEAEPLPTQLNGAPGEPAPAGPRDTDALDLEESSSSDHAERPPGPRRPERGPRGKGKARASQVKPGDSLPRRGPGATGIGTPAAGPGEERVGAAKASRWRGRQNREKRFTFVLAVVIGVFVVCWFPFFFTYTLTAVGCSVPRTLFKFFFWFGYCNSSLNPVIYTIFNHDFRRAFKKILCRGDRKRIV
The note with it: FLIPR agonist assay, HEK 293 cells with chimeric G protein; norepinephrine is the standard full agonist. The protocol:
(§1) HEK 293 cells stably expressing the bovine a1A receptor, human alpha 2A receptor and the chimeric G protein Gai5, are plated in poly-D-lysine coated 384-well plates at 20,000-40,000 cells per well and grown overnight in DMEM supplemented with 10% fetal bovine serum. For FLIPR (fluorometric image plate reader) evaluation, cells are washed twice with HBSS/HEPES Buffer (1× Hanks Buffered Salt Solution, 20 mM HEPES, pH 7.4) prior to the addition of Fluo-4-AM (4 uM Fluo-4-AM, 0.04% pluronic acid in HBSS/HEPES Buffer), a calcium-sensitive dye. Cells are loaded with dye for 40 minutes at 37° C., then washed 4 times with HBSS/HEPES Buffer. For both the agonist and antagonist assay, the test compounds are tested between 0.64 nM-10,000 nM. For an agonist assay, the reaction is initiated by the addition of the appropriate dilutions of compounds and the transient calcium signal captured. The peak height of the calcium curve is determined and utilized for calculation of EC50 and efficacy using ActivityBase. Norepinephrine is the standard full agonist used for evaluating alpha-1 and alpha-2 receptor activity.

The test system of test [1] is Normotensive male Dutch-Belted rabbits (IOP). The note with it: for IOP effect in the contralateral eye: single topical drop onto right eye, untreated eye. The protocol:
The experimental animals used, were Normotensive male Dutch-Belted rabbits (Myrtle's Rabbitry) over 6 months in age (n=4/compound/dose screened). A single drop (50 μl) of the drug formulation, was administered topically by pipette onto the right eye (treated eye) at approximately 0700 hours. IOP of the rabbits (treated and untreated eyes) was measured 0 hours before and at 0.5, 1, 2, 3, 4, 6 and 8 hours after topical eyedrop administration. IOP at the time of eyedrop administration (0 hours) was used as a baseline value. Prior to the tonometric measurements, 0.05% proparacaine (50 μl) was administered to each eye. Tonometric IOP measurements were obtained with a Mentor Pneumontonmeter. Additionally, all studies were masked. At least 1 week of wash-out time was allowed for each rabbit between dosings. All animals were examined for sedation, ocular irritation, and changes in pupil diameter throughout the course of the experiments.

In the next test the target is T2, bovine a1A receptor (Bos taurus, UniProt P18130).
T2 sequence (P18130 1-466): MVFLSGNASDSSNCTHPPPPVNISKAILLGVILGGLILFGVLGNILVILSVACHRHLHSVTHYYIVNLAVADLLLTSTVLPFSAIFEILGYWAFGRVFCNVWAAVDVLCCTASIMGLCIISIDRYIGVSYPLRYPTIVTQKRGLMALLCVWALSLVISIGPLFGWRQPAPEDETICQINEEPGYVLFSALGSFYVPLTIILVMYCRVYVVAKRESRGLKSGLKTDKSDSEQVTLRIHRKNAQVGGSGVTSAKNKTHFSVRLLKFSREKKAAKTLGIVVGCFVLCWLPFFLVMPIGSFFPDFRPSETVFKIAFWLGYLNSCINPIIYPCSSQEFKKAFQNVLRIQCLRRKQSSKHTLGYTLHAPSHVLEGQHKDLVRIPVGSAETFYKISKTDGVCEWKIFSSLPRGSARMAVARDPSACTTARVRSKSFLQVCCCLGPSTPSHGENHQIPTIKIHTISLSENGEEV
The experiment in a line: cell-based. The settings on record: for a1A efficacy: FLIPR agonist assay, HEK 293 cells, norepinephrine is the standard full agonist. The method, then:
as §1

By EC50 is commonly meant the concentration that produces a half-maximal response. The low end stands for higher potency in that assay, the high end for lower potency in that assay. Turning to `Brc1c(NC2=NCCN2)ccc2nccnc12` [Brimonidine, reference compound], the a2A efficacy at human alpha 2A receptor came to 0.95. The “IOP effect at 6 hrs in the treated eye” value in test [1] (0.15%, single topical drop, DB Rabbits, 6 hrs) is “minimal”. Besides, the “IOP effect in the contralateral eye” value in test [1] (DB Rabbits) is “strong contralateral effect”. Besides, at bovine a1A receptor, the EC50 lay in the range of 600 to 2400 nM and the a1A efficacy turned out to be 0.3.
`Cc1c(CO)cccc1[C@H](C)c1c[nH]cn1` [Compound 1, (S)-[3-(1-(1H-imidazol-4-yl)ethyl)-2-methylphenyl] methanol] displayed an a2A efficacy on human alpha 2A receptor of 0.9. The “duration of IOP lowering in the treated eye” value in test [1] (0.15% concentration, single topical drop (50 μl), DB Rabbits) was “at least 6 hours”. Also, in test [1] (FIG. 1), the “IOP lowering efficacy compared with brimonidine” value is listed as “comparable efficacy to brimonidine” and the “intraocular pressure duration compared with brimonidine” value is on record as “longer intraocular pressure duration than brimonidine”. In test [1] (DB Rabbits), the “IOP effect in the contralateral eye” value is listed as “very little effect”. At bovine a1A receptor, the EC50 fell in the range of 340 to 2400 nM and the a1A efficacy was determined as 0.7.
